This is an account of results in patent US20140255392A1 (BAYER INTELLECTUAL PROPERTY GMBH, priority 2011, published 2014).

This assay concerns the target T1, human kinase Mps-1 (Homo sapiens, UniProt P33981).
T1 construct: N-terminally GST-tagged human full length recombinant Mps-1 kinase; GST (N); purchased Invitrogen, Karslruhe, Germany PV4071
T1 sequence (P33981 1-857): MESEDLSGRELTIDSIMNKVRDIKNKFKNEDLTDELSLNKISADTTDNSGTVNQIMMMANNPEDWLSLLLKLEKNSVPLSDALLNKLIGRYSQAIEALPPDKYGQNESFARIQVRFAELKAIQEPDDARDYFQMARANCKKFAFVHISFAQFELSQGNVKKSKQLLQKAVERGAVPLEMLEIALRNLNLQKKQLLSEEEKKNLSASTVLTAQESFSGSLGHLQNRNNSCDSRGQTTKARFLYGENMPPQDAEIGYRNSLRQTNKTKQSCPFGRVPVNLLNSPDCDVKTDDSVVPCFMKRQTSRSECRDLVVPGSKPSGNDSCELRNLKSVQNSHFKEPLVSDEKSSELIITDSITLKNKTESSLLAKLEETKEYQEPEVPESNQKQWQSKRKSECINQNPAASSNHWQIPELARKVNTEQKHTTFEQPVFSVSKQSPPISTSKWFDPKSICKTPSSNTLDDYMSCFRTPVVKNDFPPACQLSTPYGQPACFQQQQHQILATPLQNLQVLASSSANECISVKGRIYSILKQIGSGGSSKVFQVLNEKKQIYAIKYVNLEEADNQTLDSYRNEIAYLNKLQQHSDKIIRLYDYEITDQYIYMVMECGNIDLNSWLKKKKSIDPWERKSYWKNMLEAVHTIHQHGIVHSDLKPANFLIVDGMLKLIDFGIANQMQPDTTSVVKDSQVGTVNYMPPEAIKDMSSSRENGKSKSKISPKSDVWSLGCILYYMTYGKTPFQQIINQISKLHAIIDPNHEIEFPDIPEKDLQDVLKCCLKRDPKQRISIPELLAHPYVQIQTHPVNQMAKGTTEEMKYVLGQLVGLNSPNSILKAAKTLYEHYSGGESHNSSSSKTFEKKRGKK
Nature of the assay: Mps-1 kinase assay (TR-FRET). The assay is classed as biochemical. The settings on record: N-terminally GST-tagged human full length recombinant Mps-1; 10 μM ATP; 1 μM peptide substrate; 60 min at 22° C. A digest of the protocol: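 Inhibition of Mps-1 (N-terminal GST fusion, full length) toward a biotinylated peptide is read as Eu-to-XLent TR-FRET. Enzyme level, around 1 nM final, follows lot activity.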
Background: In TR-FRET formats the signal depends on donor and acceptor labels being close together.

With `CCNC(=O)c1ccc(-c2cnc3c(NCCC(F)(F)F)cc(-c4ccccc4OC)cn23)cc1C` [Example 82, N-ethyl-4-{6-(2-methoxyphenyl)-8-[(3,3,3-trifluoropropyl)amino]imidazo[1,2-a]pyridin-3-yl}-2-methylbenzamide], the IC50 was 21.3 nM.
The figure for `Cc1cc(-c2cnc3c(NCCC(F)(F)F)cc(Oc4cccc(F)c4F)cn23)ccc1C(=O)NC1CC1` [Example 30, N-cyclopropyl-4-{6-(2,3-difluorophenoxy)-8-[(3,3,3-trifluoropropyl)amino]imidazo[1,2-a]pyridin-3-yl}-2-methylbenzamide] is 0.4 nM.
The figure for `C=Cc1cc(NCCC(F)(F)F)c2ncc(-c3ccc(C(=O)N[C@H]4C[C@@H]4F)c(C)c3)n2c1` (relative stereo) [Example 97, N-[rel-(1S,2S)-2-fluorocyclopropyl]-2-methyl-4-{8-[(3,3,3-trifluoropropyl)amino]-6-vinylimidazo[1,2-a]pyridin-3-yl}benzamide] is 47.4 nM; for `Cc1cc(-c2cnc3c(NCCC(F)(F)F)cc(Oc4cccc(OC(F)(F)F)c4)cn23)ccc1C(=O)NC1(C)CC1` [Example 76, 2-Methyl-N-(1-methylcyclopropyl)-4-{6-[3-(trifluoromethoxy)phenoxy]-8-[(3,3,3-trifluoropropyl)amino]imidazo[1,2-a]pyridin-3-yl}benzamide] it is 105 nM; for `Cc1cc(-c2cnc3c(NCCC(F)(F)F)cc(-c4ccc(C(=O)NC5(CO)CC5)c(C)c4)cn23)ccc1C(=O)NC1CC1` [Example 151, 4-{3-[4-(cyclopropylcarbamoyl)-3-methylphenyl]-8-[(3,3,3-trifluoropropyl)amino]imidazo[1,2-a]pyridin-6-yl}-N-[1-(hydroxymethyl)cyclopropyl]-2-methylbenzamide] it is 2.6 nM.
For `Cc1cc(-c2cnc3c(NCC(F)F)cc(Oc4cc(F)ccc4F)cn23)ccc1C(=O)NC1CC1` [Example 165, N-cyclopropyl-4-{8-[(2,2-difluoroethyl)amino]-6-(2,5-difluorophenoxy)imidazo[1,2-a]pyridin-3-yl}-2-methylbenzamide] the value was 48.3 nM; for `Cc1ccc(F)cc1Oc1cc(NCCC(F)(F)F)c2ncc(-c3ccc(C(=O)N[C@H]4C[C@@H]4F)c(C)c3)n2c1` (relative stereo) [Example 29, N-[rel-(1S,2S)-2-fluorocyclopropyl]-4-{6-(5-fluoro-2-methylphenoxy)-8-[(3,3,3-trifluoropropyl)amino]imidazo[1,2-a]pyridin-3-yl}-2-methylbenzamide], 1.3 nM.
Regarding `Cc1cc(-c2cnc3c(NCCC(F)(F)F)cc(CCO)cn23)ccc1C(=O)NC1CC1` [Example 141, N-cyclopropyl-4-{6-(2-hydroxyethyl)-8-[(3,3,3-trifluoropropyl)amino]imidazo[1,2-a]pyridin-3-yl}-2-methylbenzamide], the IC50 came out at 26.2 nM.
For `Cc1ccc(F)cc1Oc1cc(NCC(F)F)c2ncc(-c3ccc(C(=O)NC4CC4)c(C)c3)n2c1` [Example 164, N-cyclopropyl-4-{8-[(2,2-difluoroethyl)amino]-6-(5-fluoro-2-methylphenoxy)imidazo[1,2-a]pyridin-3-yl}-2-methylbenzamide] the value was 13.8 nM; for `Cc1cc(-c2cnc3c(NCCC(F)(F)F)cc(Oc4cccc(F)c4)cn23)ccc1C(=O)NC1CCC1` [Example 24, N-cyclobutyl-4-{6-(3-fluorophenoxy)-8-[(3,3,3-trifluoropropyl)amino]imidazo[1,2-a]pyridin-3-yl}-2-methylbenzamide], 11.1 nM.
For `CCNC(=O)c1ccc(-c2cnc3c(NCCC(F)(F)F)cc(Oc4ccc(OC)c(F)c4)cn23)cc1C` [Example 107, N-ethyl-4-{6-(3-fluoro-4-methoxyphenoxy)-8-[(3,3,3-trifluoropropyl)amino]imidazo[1,2-a]pyridin-3-yl}-2-methylbenzamide] the value was 1.8 nM.
The figure for `Cc1cc(-c2cnc3c(NCCC(F)(F)F)cc(Sc4ccccc4N)cn23)ccc1C(=O)NC1CC1` [Example 3-4, 4-{6-[(2-aminophenyl)sulfanyl]-8-[(3,3,3-trifluoropropyl)amino]imidazo[1,2-a]pyridin-3-yl}-N-cyclopropyl-2-methylbenzamide] is 2 nM; for `Cc1cc(-c2cnc3c(NCCC(F)(F)F)cc(Oc4ccccc4)cn23)ccc1C(=O)NC1(C)CC1` [Example 58, 2-Methyl-N-(1-methylcyclopropyl)-4-{6-phenoxy-8-[(3,3,3-trifluoropropyl)amino]imidazo[1,2-a]pyridin-3-yl}benzamide] it is 5.7 nM.
Take `Cc1cc(F)cc(Sc2cc(NCCC(F)(F)F)c3ncc(-c4ccc(C(=O)NC5CC5)c(C)c4)n3c2)c1` [Example 3-1, N-cyclopropyl-4-{6-[(3-fluoro-5-methylphenyl)sulfanyl]-8-[(3,3,3-trifluoropropyl)amino]imidazo[1,2-a]pyridin-3-yl}-2-methylbenzamide]: the IC50 stood at 0.6 nM.
On to `Cc1cc(-c2cnc3c(NCCC(F)(F)F)cc(Oc4cncc(F)c4)cn23)ccc1C(=O)NC1CC1` [Example 177, N-cyclopropyl-4-{6-[(5-fluoropyridin-3-yl)oxy]-8-[(3,3,3-trifluoropropyl)amino]imidazo[1,2-a]pyridin-3-yl}-2-methylbenzamide], for which the IC50 worked out at 20.4 nM.
For `COc1cccc(Oc2cc(NCCC(F)(F)F)c3ncc(-c4ccc(C(=O)NC5(C)CC5)c(C)c4)n3c2)c1` [Example 54, 4-{6-(3-Methoxyphenoxy)-8-[(3,3,3-trifluoropropyl)amino]imidazo[1,2-a]pyridin-3-yl}-2-methyl-N-(1-methylcyclopropyl)benzamide] the value was 16 nM; for `C/C=C/c1cc(NCCC(F)(F)F)c2ncc(-c3ccc(C(=O)N[C@H]4C[C@@H]4C)c(C)c3)n2c1` (relative stereo) [Example 117, 2-Methyl-N-[rel-(1S,2S)-2-methylcyclopropyl]-4-{6-[(1E)-prop-1-en-1-yl]-8-[(3,3,3-trifluoropropyl)amino]imidazo[1,2-a]pyridin-3-yl}benzamide], 9.4 nM; for `Cc1cc(-c2cnc3c(NCCC(F)(F)F)cc(-c4ccncc4)cn23)ccc1C(=O)NC1(C)CC1` [Example 90], 15.9 nM.
On to `COc1ccc(Oc2cc(NCCC(F)(F)F)c3ncc(-c4ccc(C(=O)NC5CC5)c(C)c4)n3c2)c(F)c1` [Example 69, N-cyclopropyl-4-{6-(2-fluoro-4-methoxyphenoxy)-8-[(3,3,3-trifluoropropyl)amino]imidazo[1,2-a]pyridin-3-yl}-2-methylbenzamide], for which the IC50 was found to be 1 nM.
For `Cc1cc(-c2cc(NCC3CCOCC3)c3ncc(-c4ccc(C(=O)NC5CC5)c(C)c4)n3c2)ccc1C(=O)NC1CC1` [Example 9, 4,4′-{8-[(Tetrahydro-2H-pyran-4-ylmethyl)amino]imidazo[1,2-a]pyridine-3,6-diyl}bis(N-cyclopropyl-2-methylbenzamide)] the value was 0.4 nM; for `Cc1cc(-c2cnc3c(NCCC(F)(F)F)cc(Oc4ccc(O)c(F)c4)cn23)ccc1C(=O)NC1CC1` [Example 129, N-cyclopropyl-4-{6-(3-fluoro-4-hydroxyphenoxy)-8-[(3,3,3-trifluoropropyl)amino]imidazo[1,2-a]pyridin-3-yl}-2-methylbenzamide], 0.5 nM.

One may read the IC50 as the point on the concentration scale where inhibition reaches its midpoint.
